In US20150018403A1, “FLUORENE-AMIDE COMPOUNDS AND PHARMACEUTICAL USE THEREOF” (JAPAN TOBACCO INC., priority 2013, published 2015) one finds inhibition and IC50 data, which are given here for two molecules.

pIC50: −log10 of the molar value.

The target of data set [1] is T1, hERG (Homo sapiens, UniProt Q12809).
T1 construct: host or cells: HEK293
The experiment in a line: hERG whole cell patch clamp test. The note with it: human, HEK293 cells transfected with hERG, pH 7.4, read-out: hERG inhibition rate (%); for inhibition at 3 μmol/L: concentration 3 μmol/L; for inhibition at 30 μmol/L: concentration 30 μmol/L. In kind it is cell-based. The method, then:
(§1) Using human ether-a-go-go related gene (hERG)-transfected HEK293 cells (Cytomyx Limited), an influence on hERG current was examined according to the whole cell patch clamp technique. The hERG-transfected HEK293 cells were passaged using a CO2 incubator (BNA-111, TABAI ESPEC CORP.) under the set conditions of 37° C., 5% CO2, saturated humidity. Culture containers used were Collagen Type I Coated 75 cm^2 flask (4123-010, AGC TECHNO GLASS CO., Ltd.) and Collagen Type I Coated 35 mm culture dish (4000-010, AGC TECHNO GLASS CO., Ltd.). The culture medium used was E-MEM (Eagle Minimum Essential Medium (Earle's Salts, Nikken biomedical laboratory) added with 10% FCS (Fetal bovine serum, BioWest, L.L.C.) and 1% MEM Non-Essential Amino Acids Solution (NEAA, Invitrogen Corporation). Geneticin for the selection of hERG gene expressing cells was added thereto to a concentration of 400 μg/mL. As the cells for the measurement, 3×10^4 hERG-transfected HEK293 cells were plated on a 35 mm culture dish 4 to 7 days before measurement of the hERG current. The culture dish produced for the measurement contained the above-mentioned culture medium without geneticin (Invitrogen Corporation).
(§2) The highest evaluation concentration of each compound was determined from the highest concentration at which precipitation was not found in the standard extracellular fluid (NaCl: 140 mmol/L, KCl: 2.5 mmol/L, MgCl2: 2 mmol/L, CaCl2: 2 mmol/L, HEPES: 10 mmol/L, glucose: 10 mmol/L (adjusted to pH 7.4 with Tris-base)). As the application method, each solution to be applied was ejected from a Y-tube having a tip diameter of about 0.25 mm, which was adjacent (about 2 mm) to the cells, and applied to the cells. The ejection rate was about 0.4 mL/min.
(§3) The experiment was performed at room temperature under a phase contrast microscope. The 35 mm culture dish plated with the cells was set on a measurement apparatus, and the standard extracellular fluid was continuously applied to the cells from the Y-tube. A glass electrode for the measurement was filled with an intracellular fluid (Potassium Gluconate: 130 mmol/L, KCl: 20 mmol/L, MgCl2: 1 mmol/L, ATP-Mg: 5 mmol/L, EGTA: 3.5 mmol/L, HEPES: 10 mmol/L (adjusted to pH 7.2 with Tris-base)). A conventional whole cell patch clamp method was applied to the cells, and the maintenance electric potential was set to −80 mV. Under a fixed electric potential, the whole cell current was amplified by an amplifier for patch clamp (AXOPATCH-200B, Axon Instruments, Inc.), and the data was loaded into a computer (IMC-P642400, Intermedical Co., Ltd.) using a data acquisition analysis software (pCLAMP 9.2, Axon Instruments, Inc.).
(§4) The measurement of the hERG current was performed in the following two steps. In both cases, the hERG current was initiated by giving a command potential (maintenance electric potential −80 mV, prepulse+20 mV, 1.5 sec, test-pulse −50 mV, 1.5 sec).
(§5) Step (1): The above-mentioned command potential was given at 0.1 Hz for 2 min.
(§6) Step (2): The above-mentioned command potential was subjected to P/3 subtraction of pCLAMP 9.2 to remove leak current. This was repeated three times and an average thereof was taken as hERG current.
(§7) Subsequent to step (1), Step (2) was performed (about 3 min), and the maximum tail current obtained by applying a test-pulse to the hERG current obtained by the method of step (2) was taken as hERG current value. Hereafter, the operations of (1) and (2) were alternately repeated until completion of the experiment and the hERG current value was measured.
(§8) Stable hERG current value was recorded three times (about 10 min), and the standard extracellular fluid was instantaneously exchanged with each application fluid. The hERG current value was measured three times (about 10 min) in the same manner during perfusion of the application fluid, and the current value obtained by the 3rd measurement was taken as hERG current value after perfusion of the application fluid. […]
On the technique in general: The hERG channel carries a current that helps repolarise heart muscle cells.

The target of data set [2] is T2, hERG current (hERG-transfected HEK293 cells) (Homo sapiens, UniProt Q12809).
T2 construct: host or cells: HEK293
T2 sequence (Q12809 whole entry): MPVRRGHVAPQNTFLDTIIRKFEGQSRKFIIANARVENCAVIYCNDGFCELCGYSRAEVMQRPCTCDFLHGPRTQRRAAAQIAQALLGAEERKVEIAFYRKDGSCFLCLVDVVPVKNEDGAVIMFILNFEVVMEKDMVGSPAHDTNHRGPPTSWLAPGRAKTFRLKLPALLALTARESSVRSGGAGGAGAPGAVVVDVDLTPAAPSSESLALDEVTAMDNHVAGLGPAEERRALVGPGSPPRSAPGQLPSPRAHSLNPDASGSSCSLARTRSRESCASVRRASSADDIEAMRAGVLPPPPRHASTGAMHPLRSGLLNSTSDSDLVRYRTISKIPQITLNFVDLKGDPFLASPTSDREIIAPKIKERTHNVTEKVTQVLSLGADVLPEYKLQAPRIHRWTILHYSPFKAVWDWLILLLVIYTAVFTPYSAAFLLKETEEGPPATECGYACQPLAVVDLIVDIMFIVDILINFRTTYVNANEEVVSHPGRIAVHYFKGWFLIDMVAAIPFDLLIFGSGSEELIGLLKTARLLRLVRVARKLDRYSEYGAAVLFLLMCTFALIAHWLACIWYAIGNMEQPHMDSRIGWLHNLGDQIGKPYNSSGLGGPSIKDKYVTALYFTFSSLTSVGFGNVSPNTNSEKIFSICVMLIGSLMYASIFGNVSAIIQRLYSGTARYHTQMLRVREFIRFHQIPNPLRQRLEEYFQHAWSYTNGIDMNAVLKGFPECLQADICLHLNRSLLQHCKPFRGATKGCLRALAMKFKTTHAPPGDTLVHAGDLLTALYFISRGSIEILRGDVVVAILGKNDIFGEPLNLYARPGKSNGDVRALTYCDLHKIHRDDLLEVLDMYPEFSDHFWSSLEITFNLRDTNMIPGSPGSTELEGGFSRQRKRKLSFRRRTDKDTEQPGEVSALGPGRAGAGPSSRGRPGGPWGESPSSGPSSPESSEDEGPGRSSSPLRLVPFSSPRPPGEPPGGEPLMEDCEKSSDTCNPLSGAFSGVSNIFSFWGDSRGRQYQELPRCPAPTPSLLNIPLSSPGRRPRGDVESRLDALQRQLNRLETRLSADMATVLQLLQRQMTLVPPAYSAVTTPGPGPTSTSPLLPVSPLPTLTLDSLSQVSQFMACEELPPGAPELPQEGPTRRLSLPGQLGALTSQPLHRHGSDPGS
Put plainly: hERG whole cell patch clamp test. Type of data set: cell-based. Particulars: whole cell patch clamp, hERG-transfected HEK293 cells. As for the experimental part:
as §1, §2, §3, §4, §5, §6, §7, §8

T1 sequence (Q12809 whole entry): as above

For orientation: inhibition means the drop in the measured response relative to a control, in per cent. One may read the pIC50 as the IC50 on a negative log10 scale, so that one unit is a factor of ten. Read a high pIC50 as a small IC50. Regarding `CC(C)(O)COc1cc(-c2cnn(CCO)c2)c2c(c1)[C@@](O)(C(F)(F)F)c1ccccc1-2` [compound (C), (9R)-4-[1-(2-Hydroxyethyl)-1H-pyrazol-4-yl]-2-(2-hydroxy-2-methylpropoxy)-9-(trifluoromethyl)-9H-fluoren-9-ol], in data set [1], the inhibition at 3 μmol/L amounted to 11.5% and the inhibition at 30 μmol/L came to 69%. The molecule also had a pIC50 in data set [2] of 4.88.
For `CC(C)(C(N)=O)n1cc(-c2cc(F)cc3c2-c2ccccc2[C@]3(O)C(F)(F)F)cn1` [compound (D), 2-{4-[(9R)-2-Fluoro-9-hydroxy-9-(trifluoromethyl)-9H-fluoren-4-yl]-1H-pyrazol-1-yl}-2-methylpropanamide], in that order: 9.4%, 67.5% and 4.85.
